# Laboratory results published in patent publication US20260015350A1, “AZAQUINAZOLINE PAN-KRAS INHIBITORS” (Mirati Therapeutics, Inc., priority 2022, published 2026).
# Legend:
# KRas^G12S = molecular target: T1, KRas^G12S (Homo sapiens, UniProt P01116, G12S); assay: KRas binding assay (TR-FRET tracer displacement), KRas G12S; conditions: for inhibition at 0.01 µM: single point, 10 nM compound, TR-FRET; for IC50: TR-FRET tracer displacement, KRas G12S
# T1 construct: Biotinylated KRas (corresponding to amino acids 1-169, produced at Accelegan Inc.); biotin (biotinylated); purchased Accelegan Inc
# [1] = test system: KRas-mediated phosphorylation of ERK in H727 cells; assay: Inhibition of KRas-mediated phosphorylation of ERK (Cisbio HTRF pERK), H727 cells; format: cell-based; conditions: Homo sapiens; for IC50: NCI-H727, H727 cells, HTRF pERK
# Method in brief: (§1)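 Cells were seeded at 6,000 per well and treated for 3 hrs with compound in a 10-dose, 3-fold series from 10 uM (0.8% final DMSO), with 0.2 uM Trametinib as Min control. Lysates made at 4° C over 40 mins were incubated 2 hrs at room temperature with d2- and Cryptate-labelled antibodies, then read by HTRF.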
# [2] = test system: KRas-mediated phosphorylation of ERK in MKN1 cells; assay: Inhibition of KRas-mediated phosphorylation of ERK (Cisbio HTRF pERK), MKN1 cells; format: cell-based; conditions: Homo sapiens, MKN-1
# Method in brief: (§2)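 Overnight culture at 37° C./5% CO2 in RPMI containing 10% FBS, seeded 6,000 cells per well, preceded the assay. A covered 4-hour incubation at room temperature followed, then HTRF signal for phosphorylated ERK was measured.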
# [3] = test system: KRas-mediated phosphorylation of ERK in HCT116 cells; assay: Inhibition of KRas-mediated phosphorylation of ERK (Cisbio HTRF pERK), HCT116 cells; format: cell-based; conditions: Homo sapiens; for inhibition at 0.1 µM: HCT-116, 3 h, single point, 100 nM compound, 3 hrs; for IC50: HCT-116, HTRF pERK
# Method in brief: (§3)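 Min control wells contained 0.2 uM Trametinib, while test compounds ran as 10 doses (3-fold, top 10 uM; 0.8% DMSO final) on cells for 3 hrs. After 40 mins lysis at 4° C, lysates were probed with HTRF antibodies for 2 hrs at room temperature.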
# [4] = test system: KRas-mediated phosphorylation of ERK in H460 cells; assay: Inhibition of KRas-mediated phosphorylation of ERK (Cisbio HTRF pERK), H460 cells; format: cell-based; conditions: Homo sapiens; for inhibition at 0.1 µM: NCI-H460, 3 h, single point, 100 nM compound, 3 hrs; for IC50: NCI-H460, HTRF pERK
# Method in brief: as §1
# KRas^G13D = molecular target: T2, KRas^G13D (Homo sapiens, UniProt P01116, G13D); assay: KRas binding assay (TR-FRET tracer displacement), KRas G13D; conditions: for inhibition at 0.01 µM: single point, 10 nM compound, TR-FRET; for IC50: TR-FRET tracer displacement, KRas G13D
# T2 construct: Biotinylated KRas (corresponding to amino acids 1-169, produced at Accelegan Inc.); biotin (biotinylated); purchased Accelegan Inc
# KRas^G12A = molecular target: T3, KRas^G12A (Homo sapiens, UniProt P01116, G12A); assay: KRas binding assay (TR-FRET tracer displacement), KRas G12A; conditions: for inhibition at 0.01 µM: single point, 10 nM compound, TR-FRET; for IC50: TR-FRET tracer displacement, KRas G12A
# T3 construct: Biotinylated KRas (corresponding to amino acids 1-169, produced at Accelegan Inc.); biotin (biotinylated); purchased Accelegan Inc
# [5] = test system: KRas-mediated phosphorylation of ERK in A549 cells; assay: Inhibition of KRas-mediated phosphorylation of ERK (Cisbio HTRF pERK), A549 cells; format: cell-based; conditions: Homo sapiens; for IC50: HTRF pERK
# Method in brief: as §3
# KRas^G12V = molecular target: T4, KRas^G12V (Homo sapiens, UniProt P01116, G12V); assay: KRas binding assay (TR-FRET tracer displacement), KRas G12V
# T4 construct: Biotinylated KRas (corresponding to amino acids 1-169, produced at Accelegan Inc.); biotin (biotinylated); purchased Accelegan Inc
# KRas^WT = molecular target: T5, KRas^WT (Homo sapiens, UniProt P01116); assay: KRas binding assay (TR-FRET tracer displacement), KRas WT; conditions: for inhibition at 0.01 µM: single point, 10 nM compound, TR-FRET; for IC50: TR-FRET tracer displacement, KRas WT
# T5 construct: Biotinylated KRas (corresponding to amino acids 1-169, produced at Accelegan Inc.); biotin (biotinylated); purchased Accelegan Inc
# KRas^G12C = molecular target: T6, KRas^G12C (Homo sapiens, UniProt P01116, G12C); assay: KRas binding assay (TR-FRET tracer displacement), KRas G12C; conditions: for inhibition at 0.01 µM: single point, 10 nM compound, TR-FRET; for IC50: TR-FRET tracer displacement, KRas G12C
# T6 construct: Biotinylated KRas (corresponding to amino acids 1-169, produced at Accelegan Inc.); biotin (biotinylated); purchased Accelegan Inc
# KRas^Q61H = molecular target: T7, KRas^Q61H (Homo sapiens, UniProt P01116, Q61H); assay: KRas binding assay (TR-FRET tracer displacement), KRas Q61H; conditions: for inhibition at 0.01 µM: single point, 10 nM compound, TR-FRET; for IC50: TR-FRET tracer displacement, KRas Q61H
# T7 construct: Biotinylated KRas (corresponding to amino acids 1-169, produced at Accelegan Inc.); biotin (biotinylated); purchased Accelegan Inc
# [6] = test system: KRas-mediated phosphorylation of ERK in PSN1 cells; assay: Inhibition of KRas-mediated phosphorylation of ERK (Cisbio HTRF pERK), PSN1 cells; format: cell-based; conditions: Homo sapiens
# Method in brief: as §2
# [7] = test system: KRas-mediated phosphorylation of ERK in AsPC-1 cells; assay: Inhibition of KRas-mediated phosphorylation of ERK (Cisbio HTRF pERK), AsPC-1 cells; format: cell-based; conditions: Homo sapiens; for IC50: ASPC1, AsPC-1 cells, HTRF pERK
# Method in brief: as §1
# KRas^G12D = molecular target: T8, KRas^G12D (Homo sapiens, UniProt P01116, G12D); assay: KRas binding assay (TR-FRET tracer displacement), KRas G12D
# T8 construct: Biotinylated KRas (corresponding to amino acids 1-169, produced at Accelegan Inc.); biotin (biotinylated); purchased Accelegan Inc
# KRas^G12R = molecular target: T9, KRas^G12R (Homo sapiens, UniProt P01116, G12R); assay: KRas binding assay (TR-FRET tracer displacement), KRas G12R
# T9 construct: Biotinylated KRas (corresponding to amino acids 1-169, produced at Accelegan Inc.); biotin (biotinylated); purchased Accelegan Inc
# [8] = test system: KRas-mediated phosphorylation of ERK in H358 cells; assay: Inhibition of KRas-mediated phosphorylation of ERK (Cisbio HTRF pERK), H358 cells; format: cell-based; conditions: Homo sapiens
# Method in brief: as §1
# T2 sequence (P01116 1-169 isoform P01116-2 G13D): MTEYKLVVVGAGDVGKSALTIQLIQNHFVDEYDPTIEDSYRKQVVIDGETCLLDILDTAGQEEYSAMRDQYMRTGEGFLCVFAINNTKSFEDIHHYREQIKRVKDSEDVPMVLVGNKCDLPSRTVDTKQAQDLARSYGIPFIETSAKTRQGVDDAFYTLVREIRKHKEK
# T7 sequence (P01116 1-169 isoform P01116-2 Q61H): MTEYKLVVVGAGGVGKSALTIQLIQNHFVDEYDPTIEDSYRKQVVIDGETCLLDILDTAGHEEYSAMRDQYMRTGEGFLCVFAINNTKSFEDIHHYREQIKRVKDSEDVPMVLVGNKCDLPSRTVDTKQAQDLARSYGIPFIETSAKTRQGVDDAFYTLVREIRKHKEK
# T3 sequence (P01116 1-169 isoform P01116-2 G12A): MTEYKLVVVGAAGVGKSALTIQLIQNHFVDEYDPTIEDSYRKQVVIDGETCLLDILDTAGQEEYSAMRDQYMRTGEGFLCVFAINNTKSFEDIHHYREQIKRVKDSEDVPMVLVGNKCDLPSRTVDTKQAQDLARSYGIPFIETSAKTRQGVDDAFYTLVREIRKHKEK
# T1 sequence (P01116 1-169 isoform P01116-2 G12S): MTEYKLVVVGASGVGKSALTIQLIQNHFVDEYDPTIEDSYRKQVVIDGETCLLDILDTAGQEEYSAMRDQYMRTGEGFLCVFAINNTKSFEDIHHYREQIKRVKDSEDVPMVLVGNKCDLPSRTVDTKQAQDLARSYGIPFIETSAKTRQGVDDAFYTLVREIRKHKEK
# T4 sequence (P01116 1-169 isoform P01116-2 G12V): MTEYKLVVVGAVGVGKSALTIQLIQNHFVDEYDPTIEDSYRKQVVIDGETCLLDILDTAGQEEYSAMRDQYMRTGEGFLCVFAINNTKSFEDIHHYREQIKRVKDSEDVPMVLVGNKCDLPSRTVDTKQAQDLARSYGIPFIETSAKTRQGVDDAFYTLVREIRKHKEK
# T9 sequence (P01116 1-169 isoform P01116-2 G12R): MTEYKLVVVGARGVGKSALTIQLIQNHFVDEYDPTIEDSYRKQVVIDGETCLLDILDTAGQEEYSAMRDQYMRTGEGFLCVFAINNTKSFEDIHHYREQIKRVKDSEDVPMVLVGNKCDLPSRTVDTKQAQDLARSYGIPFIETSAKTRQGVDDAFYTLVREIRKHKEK
# T8 sequence (P01116 1-169 isoform P01116-2 G12D): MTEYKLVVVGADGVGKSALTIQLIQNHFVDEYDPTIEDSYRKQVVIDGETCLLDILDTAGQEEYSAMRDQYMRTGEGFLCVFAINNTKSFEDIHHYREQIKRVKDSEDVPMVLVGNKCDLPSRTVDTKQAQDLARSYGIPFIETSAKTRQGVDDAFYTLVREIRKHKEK
# T5 sequence (P01116 1-169 isoform P01116-2): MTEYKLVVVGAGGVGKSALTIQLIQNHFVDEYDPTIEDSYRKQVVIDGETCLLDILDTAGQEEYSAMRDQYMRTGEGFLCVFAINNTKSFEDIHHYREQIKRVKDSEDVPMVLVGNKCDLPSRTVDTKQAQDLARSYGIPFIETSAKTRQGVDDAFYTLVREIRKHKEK
# T6 sequence (P01116 1-169 isoform P01116-2 G12C): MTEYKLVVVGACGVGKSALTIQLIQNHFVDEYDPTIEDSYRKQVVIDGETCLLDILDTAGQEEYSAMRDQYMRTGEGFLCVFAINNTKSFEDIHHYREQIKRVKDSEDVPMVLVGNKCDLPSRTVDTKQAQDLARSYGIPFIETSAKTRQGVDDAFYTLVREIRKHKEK
inhibition at 0.01 µM (KRas^G12S) [%],IC50 [1] [nM],IC50 [2] [nM],inhibition at 0.01 µM (KRas^G13D) [%],inhibition at 0.01 µM (KRas^G12A) [%],IC50 [5] [nM],IC50 (KRas^G12V) [nM],IC50 [6] [nM],IC50 [7] [nM],IC50 (KRas^G12D) [nM],IC50 (KRas^G12R) [nM],IC50 [3] [nM],IC50 (KRas^G12S) [nM],IC50 (KRas^G13D) [nM],IC50 (KRas^G12A) [nM],IC50 (KRas^WT) [nM],IC50 (KRas^G12C) [nM],IC50 (KRas^Q61H) [nM],Compound,inhibition at 0.1 µM [3] [%],inhibition at 0.1 µM [4] [%],also measured
83,49,25,86,74,47,3,2610,22,2,4,–,–,–,–,–,–,–,"CCc1c(F)ccc2cc(O)cc(-c3ncc4c(N5CCOCC(C)(O)C5)nc(OCC56CCCN5[C@H](COC(=O)N(C)C)CC6)nc4c3F)c12 (stereo in doubt) [Example 710, ((3S,7aR)-7a-(((7-(8-ethyl-7-fluoro-3-hydroxynaphthalen-1-yl)-8-fluoro-4-(6-hydroxy-6-methyl-1,4-oxazepan-4-yl)pyrido[4,3-d]pyrimidin-2-yl)oxy)methyl)hexahydro-1H-pyrrolizin-3-yl)methyl dimethylcarbamate]",37,66,inhibition at 0.01 µM (KRas^WT): 80%; inhibition at 0.01 µM (KRas^G12C): 88%; inhibition at 0.01 µM (KRas^Q61H): 88%
81,217,35,69,59,496,3,> 10000,76,< 2,3,1060,–,–,–,–,–,–,"CCc1c(F)ccc2cc(O)cc(-c3ncc4c(N5CCCn6nncc6C5)nc(OC[C@@]56CCCN5C[C@H](F)C6)nc4c3F)c12 [Example 562, 4-(4-(7,8-dihydro-4H-[1,2,3]triazolo[1,5-a][1,4]diazepin-5(6H)-yl)-8-fluoro-2-(((2R,7aS)-2-fluorohexahydro-1H-pyrrolizin-7a-yl)methoxy)pyrido[4,3-d]pyrimidin-7-yl)-5-ethyl-6-fluoronaphthalen-2-ol]",–,–,IC50 [4]: 438 nM; inhibition at 0.01 µM (KRas^WT): 62%; inhibition at 0.01 µM (KRas^G12C): 76%; inhibition at 0.01 µM (KRas^Q61H): 67%
98,33,2,98,94,19,< 2,1380,62,< 2,< 2,29,–,–,–,–,–,–,"CCc1c(F)ccc2cc(O)cc(-c3ncc4c(N5C[C@@H]6C[C@H](C5)[C@H](O)[C@@H]6O)nc(OC[C@@]56CCCN5C[C@H](F)C6)nc4c3F)c12 [Example 568, (1R,5S,6R,7S)-3-(7-(8-ethyl-7-fluoro-3-hydroxynaphthalen-1-yl)-8-fluoro-2-(((2R,7aS)-2-fluorohexahydro-1H-pyrrolizin-7a-yl)methoxy)pyrido[4,3-d]pyrimidin-4-yl)-3-azabicyclo[3.2.1]octane-6,7-diol]",–,–,IC50 [4]: 17 nM; inhibition at 0.01 µM (KRas^WT): 97%; inhibition at 0.01 µM (KRas^G12C): 96%; inhibition at 0.01 µM (KRas^Q61H): 98%
–,2510,> 10000,–,–,–,23,> 10000,2510,60,34,–,31,37,35,34,31,40,"Cc1cc2[nH]ncc2c(-c2ncc3c(N4CCCC5(C4)NC(=O)NC5=O)nc(OCC45CCCN4CCC5)nc3c2F)c1C (centres unmarked) [Example 728, 7-(7-(5,6-dimethyl-1H-indazol-4-yl)-8-fluoro-2-((hexahydro-1H-pyrrolizin-7a-yl)methoxy)pyrido[4,3-d]pyrimidin-4-yl)-1,3,7-triazaspiro[4.5]decane-2,4-dione]",–,–,–
–,292,624,–,–,2610,< 2,> 10000,1600,< 2,< 2,1790,2,3,< 2,3,< 2,< 2,"Oc1cc(Cl)c(C2CC2)c(-c2ncc3c(N4CCC[C@]5(C4)C[C@H](O)C5)nc(OCC45CCCN4CCC5)nc3c2F)c1 [Example 742, (2s,4r)-6-(7-(3-chloro-2-cyclopropyl-5-hydroxyphenyl)-8-fluoro-2-((tetrahydro-1H-pyrrolizin-7a(5H)-yl)methoxy)pyrido[4,3-d]pyrimidin-4-yl)-6-azaspiro[3.5]nonan-2-ol]",–,–,–
–,1280,> 10000,–,–,–,23,> 10000,4320,8,74,–,33,177,65,106,41,151,"CN(C)C(=O)c1cc2n(n1)CCCN(c1nc(OC[C@@]34CCCN3C[C@H](F)C4)nc3c(F)c(-c4c5ccccc5cc5[nH]ncc45)ncc13)C2 [Example 761, 5-(7-(1H-benzo[f]indazol-4-yl)-8-fluoro-2-(((2R,7aS)-2-fluorohexahydro-1H-pyrrolizin-7a-yl)methoxy)pyrido[4,3-d]pyrimidin-4-yl)-N,N-dimethyl-5,6,7,8-tetrahydro-4H-pyrazolo[1,5-a][1,4]diazepine-2-carboxamide]",-13,11,–
–,340,–,–,–,412,< 2,–,784,< 2,< 2,557,< 2,< 2,< 2,< 2,< 2,< 2,"O=C1NC(=O)[C@]2(CCCN(c3nc(OC[C@@]45CCCN4C[C@H](F)C5)nc4c(F)c(-c5c(C6CC6)c(Cl)cc6[nH]ncc56)ncc34)C2)N1 [Example 780, (5R)-7-(7-(6-chloro-5-cyclopropyl-1H-indazol-4-yl)-8-fluoro-2-(((2R,7aS)-2-fluorohexahydro-1H-pyrrolizin-7a-yl)methoxy)pyrido[4,3-d]pyrimidin-4-yl)-1,3,7-triazaspiro[4.5]decane-2,4-dione]",-2,-8,"inhibition at 0.1 µM ([1]; NCI-H727, 3 h, single point, 100 nM compound, 3 hrs, H727 cells): 30%; inhibition at 0.1 µM ([8]; NCI-H358, 3 h, single point, 100 nM compound, 3 hrs): 42%; IC50 ([8]; NCI-H358, HTRF pERK): 33 nM; IC50 [4]: 246 nM; inhibition at 0.1 µM ([5]; A549, 3 h, single point, 100 nM compound, 3 hrs): 21%; inhibition at 0.1 µM ([7]; ASPC1, 3 h, single point, 100 nM compound, 3 hrs, AsPC-1 cells): -12%"
–,> 10000,> 10000,–,–,–,4,> 10000,> 10000,2,11,–,7,25,14,22,7,22,"CN(C)C(=O)c1cc2n(n1)CCCN(c1nc(OCC34CCCN3CCC4)nc3c(F)c(-c4c(C5CC5)c(Cl)cc5[nH]ncc45)ncc13)C2 [Example 881, 5-(7-(6-chloro-5-cyclopropyl-1H-indazol-4-yl)-8-fluoro-2-((tetrahydro-1H-pyrrolizin-7a(5H)-yl)methoxy)pyrido[4,3-d]pyrimidin-4-yl)-N,N-dimethyl-5,6,7,8-tetrahydro-4H-pyrazolo[1,5-a][1,4]diazepine-2-carboxamide]",–,–,–
